Measurements taken from patent publication US3944549A, “Amino derivatives of 1,4-benzodioxan” (priority 1972, dated 1976).
Entries after “also recorded” stand apart in the source; their conditions may differ. Structures can show the parent of a compound that is named as a salt.

How the values were obtained:
[1] = tested on: coronary flow rate; assay: Coronary flow rate and cardiac parameters in anaesthetised dogs, intravenous perfusion; type: in vivo
Procedure: (§1) During the series of pharmacological tests, the following parameters were used:
(§2) Cardiac work: this parameter (expressed in kgm/min.) is calculated according to the relationship: Cardiac work = average AP (mm Hg) × 1.36 = cardiac output (1/min.) × 10^-^3.
(§3) Ratio dp/dt: this parameter corresponds to the variation in pressure expressed in mm Hg per second (in English: Rate of rise of left ventricular pressure).
(§4) The technique used to measure the ratio dp/dt is as follows:
(§5) The cardiac output is determined in Beagle dogs weighing 10 to 15 kg, anesthetised with pentobarbital, by injecting Carbiogreen (1 mg in 0.5 ml) into the right ventricle. A catheter introduced via the carotid artery into the aorta makes it possible to aspirate arterial blood at the rate of 25 ml/min. and to pass it in front of the photoelectric cell of a Beckman cardiodensitometer. The results are interpreted in accordance with the Hamilton method.

[2] = tested on: adrenergic receptors; assay: α-blocking action: reversal of the hypertensive effect of adrenalin; type: in vivo, dogs; conditions: for α-blocking / α-lytic action: conclusion or summary; for hypertensive effects of adrenalin: orally; for dose from which the product is α-blocking (adrenolytic): intravenously
[3] = Acute toxicity, intravenous, in mice; conditions: mouse, in vivo; for LD50: read-out: LD-50 I.V. in mice; for NOAEL: read-out: Maximum non-toxic dose
[4] = tested on: femoral artery; assay: Vasodilating properties: injection into the femoral artery in dogs; type: in vivo; conditions: for increase in flow rate of the femoral artery: injection into femoral artery
Procedure: On injection into the femoral artery, no effect is observed at doses of less than 100 μg/kg. […] At these doses, no effect is observed on the arterial pressure AP measured in accordance with the usual conditions.
When administered intra-arterially, the product of Example 6 is injected directly into the femoral artery. The flow rate is increased by 200% from a dose of 10 μg.

[5] = tested on: acetylcholine, isoprenalin, peripheral vagus; assay: Effect on responses to acetylcholine, isoprenalin and stimulation of the peripheral vagus in dogs; conditions: dog, in vivo
[6] = tested on: vertebral, femoral and mesenteric artery flow rates; assay: Vasodilating and cardiovascular properties on intravenous administration in dogs; conditions: for increase in vertebral flow rate: 0.5 mg/kg i.v.
Procedure: as §1
Arterial pressure (abbreviated to AP): this parameter, expressed in mm Hg) is evaluated in accordance with the usual conditions.
Arterial resistance: this parameter (expressed in dynes/sec./cm^-^5) is calculated according to the ratio [formula] Cardiac index: this parameter is expressed in (ml/min.)/kg. Systolic index: this parameter is equal to the ratio cardiac index/frequency.
as §2, §3, §4, §5
(§6) In the case of intravenous administration, the tests were carried out on 4 anaesthetised dogs. The product is perfused intravenously over the course of 5 minutes at doses of 2.5, 5 and 10 mg/kg and, in one test, is administered intraduodenally at a dose of 10 mg/kg.

[7] = tested on: vertebral artery; assay: Vasodilating properties: injection into the vertebral artery in dogs; type: in vivo; conditions: for decrease in arterial pressure: injection into vertebral artery
Procedure: On injection into the vertebral artery, no effect is observed at doses of less than 1 mg/kg. At a dose of 10 mg/kg, the flow rate increases by 37% and at a dose of 20 mg/kg it only increases by 27%. At these two doses, the arterial pressure decreases respectively by 14 and 28% although no effect had been observed during the injection into the femoral artery.

[8] = tested on: man; assay: Clinical studies in man; type: in vivo
From the text: In clinical studies, good results were obtained in man by administering tablets such as: […]

[9] = tested on: intestinal barrier; assay: Intraduodenal administration in dogs: cardiovascular effects and passage through the intestinal barrier; type: in vivo; conditions: for passage through the intestinal barrier: dogs
Procedure: as §6

[10] = Analgesic activity, subcutaneous; type: in vivo; conditions: injected subcutaneously
[11] = tested on: femoral artery, vertebral artery; assay: Flow rates of femoral and vertebral arteries after oral administration in dogs; type: in vivo
[12] = third test, 0.5, 1, 2 and 4 mg/kg i.v. without stopping
[13] = injected locally into the femoral or vertebral artery
[14] = 4 anaesthetised dogs, 2.5, 5 and 10 mg/kg i.v.
[15] = anaesthetised dogs (Nembutal), 2.5 mg/kg i.v. over 5 minutes

In the case of OCCN1CCN(CC2COc3ccccc3O2)CC1 (stereo not shown) [Example 2, 1-[2-(1,4-Benzodioxanyl)-methyl]-4-(2-hydroxyethyl)-piperazine hemifumarate], the cardiac work ([1]; 5 mg/kg i.v.) is reported as “an increase in the cardiac work”, the “duration of increase in maximum intraventricular pressure” value ([1]; 5 mg/kg i.v.) is reported as 1 h and the “duration of increase in ratio dp/dt” value ([1]; 5 mg/kg i.v.) is reported as “more than 1 hour”. The “duration of increase in the differential arterial pressure” value ([1]; 5 mg/kg i.v.) was 1 h, the duration of tachycardia ([1]; 5 mg/kg i.v.) was “more than 2 hours” and the “time of maximum effect on coronary flow rate” value ([1]; 5 mg/kg i.v.) was 1 h. The duration of hypotension ([1]; 5 mg/kg i.v., can last) was “more than 2 hours”, the cardiac work ([1]; summary) was “increases the cardiac work” and the coronary irrigation ([1]; summary) was “increases the coronary irrigation”. The “α-blocking / α-lytic action” value [2] was “acts as an α-lytic product”, the “hypertensive effect of adrenalin” value ([2]; dogs) was “reverses the hypertensive effect of adrenalin in a lasting manner” and the “hypertensive effects of adrenalin” value ([2]; dogs, 5 mg/kg) was “decreases the said effects”. The “hypertensive effects of adrenalin” value ([2]; dogs, 7 mg/kg) was “inhibits them strongly”, the “hypertensive effects of adrenalin” value ([2]; dogs, 10 mg/kg) was “overcomes the α + effect of adrenalin” and the LD50 [3] was 97 ± 2 mg/kg. The NOAEL [3] was 90 mg/kg, the “effect on injection into the femoral artery” value ([4]; doses of less than 100 μg/kg) was “no effect” and the “increase in flow rate of the femoral artery” value ([4]; 1 mg/kg) was 34%. The “increase in flow rate of the femoral artery” value ([4]; 10 mg/kg) was 90%, the “increase in flow rate of the femoral artery” value ([4]; 20 mg/kg) was 67% and the “effect on the arterial pressure AP” value ([4]; injection into femoral artery, 1, 10, 20 mg/kg) was “no effect”. The “effect of the stimulation of the peripheral vagus” value [5] was “does not alter”, the “effects of the injection of acetylcholine” value [5] was “does not alter” and the “effects of the injection of isoprenalin” value [5] was “does not alter”. For the same molecule, the “duration of increase in flow rate of the vertebral artery” value ([6]; another test, 2 mg/kg i.v.) was “more than 1 hour”, the “flow rate of the femoral artery” value ([6]; another test, 2 mg/kg i.v.) was “only increased greatly during the injection” and the pulse rate ([6]; first and second tests, i.v.) was “the pulse rate is increased and this effect persists during successive injections”. For the same molecule, the “effect of additional injections on the flow rate” value ([6]; first test, additional 0.5 and 5 mg/kg i.v.) was “no effect on the flow rate”, the “increase in vertebral flow rate” value ([6]; second test, beginning of perfusion) was 135% and the “increase in vertebral flow rate” value ([6]; second test, end of perfusion) was 58%. The “effect of subsequent injections on the flow rate” value ([6]; second test, subsequent 1 and 2 mg/kg i.v.) was “no effect on the flow rate”, the dilation of arteries ([6]; summary) was “can dilate either the vertebral artery or the femoral artery or both” and the hypotensive effect ([6]; summary, higher dose) was “at a higher dose, it is hypotensive”. For the same molecule, the tachycardiac properties ([6]; summary, low doses) was “possesses tachycardiac properties at low doses”, the femoral flow rate [6, 12] was “is increased very much by the first injection, decreases during the subsequent injections” and the “flow rate of the vertebral artery” value [6, 12] was “increases at each of the injections up to the third”. The “decrease in flow rate of the mesenteric artery” value ([6]; third test, 0.5, 1, 2 and 4 mg/kg i.v., at each injection) was 25%, the “effect on injection into the vertebral artery” value ([7]; doses of less than 1 mg/kg) was “no effect” and the “decrease in arterial pressure” value ([7]; 10 mg/kg) was 14%. The “decrease in arterial pressure” value ([7]; 20 mg/kg) was 28% and the “results in clinical studies in man” value ([8]; tablets 50 mg or injectable ampoules 10 mg) was “good results”.
With OCC(O)CN1CCN(CC2COc3ccccc3O2)CC1 (stereo not shown) [Example 3, 1-[2-(1,4-Benzodioxanyl)-methyl]-4-(2,3-dihydroxypropyl)-piperazine dihydrochloride] the “hypertensive effect of adrenalin” value ([2]; 10 mg/kg intraduodenally) was “reversal of the hypertensive effect of adrenalin”, the “α-blocking / α-lytic action” value [2] was “α-blocking agent” and the LD50 [3] was 260 ± 11 mg/kg. For the same molecule, the NOAEL [3] was over 170 mg/kg, the AP ([6]; i.v., 1 mg to 13 mg/kg) was “little effect on the AP or a slight hypotension” and the cardiac output ([6]; i.v., 1 mg to 13 mg/kg) was “scarcely changed”. The “differential AP” value ([6]; i.v., 1 mg to 13 mg/kg) was “An increase in the differential AP”, the dp/dt ([6]; i.v., 1 mg to 13 mg/kg) was “an increase in dp/dt” and the “effect on the vertebral flow rate” value ([6]; i.v., 1 mg to 13 mg/kg) was “no effect on the vertebral flow rate”. The ejection time ([6]; i.v., 1 mg to 13 mg/kg) was “shortening of the ejection time”, the “rise in the pulse rate” value ([6]; i.v., 1 mg to 13 mg/kg) was at most 25% and the “results in man in vascular complaints” value ([8]; tablets containing 20 mg, 2 to 3 per day) was “good results in vascular complaints”. The “cardiovascular variations after intraduodenal administration” value ([9]; 10 and 50 mg/kg intraduodenally) was “the variations described after intravenous injection are found again” and the “passage through the intestinal barrier” value ([9]; intraduodenal, dihydrochloride) was “passes easily through the intestinal barrier”.
With CC(C)(C)c1ccc2c(c1)OCC(CN1CCN(CCO)CC1)O2 (stereo not shown) [Example 5, 1-[2-(6- or 7-{tertiarybutyl}-1,4-benzodioxanyl)-methyl]-4-(2-hydroxyethyl)-piperazine dihydrochloride] the analgesic activity [10] was “analgesic activity of the morphine type”, the LD50 [3] was 140 ± 8 mg/kg and the NOAEL [3] was 100 mg/kg. The “femoral flow rate, local injection” value [4, 13] was “increases both these flow rates in proportion to the doses, but with a preference for the femoral flow rate”, the “dose dependence of femoral vasodilating action” value ([6]; 2 dogs, i.v.) was “not proportional to the dose” and the “dose from which femoral vasodilating action is maximum” value ([6]; 2 dogs, i.v.) was 3.5 mg/kg. For the same molecule, the vertebral dilating action ([6]; 2 dogs, i.v.) was “no vertebral dilating action”, the bradycardia ([6]; 2 dogs, i.v., 15 mg/kg (last dose)) was “a bradycardia” and the “femoral vasodilating action, maximum” value ([6]; 2 dogs, i.v., from 3.5 mg/kg, increase (+)) was 60%. For the same molecule, the “effect on the AP” value ([6]; 2 dogs, i.v., up to 15 mg/kg) was “no effect on the AP”, the vasodilating effect ([6]; summary) was “exclusively peripheral and very moderate vasodilating effect” and the “vertebral flow rate, local injection” value [7, 13] was “increases both these flow rates in proportion to the doses, but with a preference for the femoral flow rate”. The minimal effective dose ([9]; Canis lupus familiaris, intraduodenal, read-out: dose from which the pulse rate decreases, intraduodenally) was 7 mg/kg and the vasodilating effect ([9]; intraduodenally, successively 3.5, 7, 15 and 35 mg/kg) was “no vasodilating effect”.
In the case of CCC(=O)OCCN1CCN(CC2COc3ccccc3O2)CC1 (stereo not shown) [Example 6, 1-[2-(1,4-Benzodioxanyl)-methyl]-4-[2-(propionyloxy)-ethyl]-piperazine dihydrochloride], the “α-blocking / α-lytic action” value [2] is reported as “α-blocking product”, the “dose from which the product is α-blocking (adrenolytic)” value ([2]; dogs) is reported as 5 mg/kg and the LD50 [3] is reported as 109 ± 9 mg/kg. The “mechanism of the vasodilating effect” value ([4]; conclusion) was “exclusively an alphalytic mechanism”, the “vasodilating effect at higher doses” value ([4]; femoral intra-arterial, up to and including 10 mg, dihydrochloride) was “do not produce a greater vasodilation; also recorded: maximal from the very start and cannot be increased by higher doses” and the “dose from which flow rate is increased by 200%” value ([4]; injected directly into the femoral artery) was 10 µg. For the same molecule, the femoral flow rate [6, 14] was “increased in the tests wherein an increase in the pulse rate is observed”, the intraventricular pressure [6, 14] was “decreased” and the pulse rate [6, 14] was “either is not altered (2 tests) or is increased”. The ratio dp/dt [6, 14] was “decreased”, the hypotensive effect ([6]; 4 anaesthetised dogs, 2.5, 5 and 10 mg/kg i.v. over 5 minutes) was “A hypotensive effect proportional to the dose” and the “time in which the femoral flow rate effect disappears” value ([6]; 4 anaesthetised dogs, i.v.) was 15 min. For the same molecule, the vertebral flow rate ([6]; 4 anaesthetised dogs, i.v.) was “only increases in one of the two tests wherein the pulse rate was increased”, the “effect on femoral flow rate, duration and reproducibility” value ([6]; conclusion) was “of short duration and is not reproducible” and the “activity on intraduodenal administration” value ([9]; 10 mg/kg intraduodenally) was “the activity is found again”. The “passage through the intestinal barrier” value ([9]; intraduodenal) was “passes through the intestinal barrier”.
With CC(=O)OCCN1CCN(CC2COc3ccccc3O2)CC1 (stereo not shown) [Example 7, 1-[2-(1,4-Benzodioxanyl)-methyl]-4-[2-(acetyloxy)-ethyl]-piperazine dihydrochloride] the “α-blocking / α-lytic action” value [2] was “α-lytic”, the “reversal of the hypertension due to adrenalin” value ([2]; from 2.5 mg/kg i.v., dogs) was “reversal of the hypertension due to adrenalin” and the “dose from which the product is α-blocking (adrenolytic)” value ([2]; dogs) was 2.5 mg/kg. For the same molecule, the LD50 [3] was 86 ± 1 mg/kg, the NOAEL [3] was 80 mg/kg and the hypotension ([6]; from 2.5 mg/kg i.v., both dogs) was “a hypotension”. The left ventricular pressure ([6]; from 2.5 mg/kg i.v., both dogs) was “a decrease in the left ventricular pressure”, the pulse rate ([6]; from 2.5 mg/kg i.v., both dogs) was “does not vary markedly” and the ratio dp/dt ([6]; from 2.5 mg/kg i.v., both dogs) was “decrease”. The systolic ejection time ([6]; from 2.5 mg/kg i.v., both dogs) was “decrease”.
For c1cnc(N2CCN(CC3COc4ccccc4O3)CC2)nc1 (stereo not shown) [Example 8, 1-[2-(1,4-Benzodioxanyl)-methyl]-4-(2-pyrimidinyl)-piperazine dihydrochloride], the “passage into the general circulation” value ([11]; 10 mg/kg) was “the product passes into the general circulation”, the “duration of rise in the flow rates” value ([11]; orally, 1 to 10 mg/kg) was 30 min and the “rise in the femoral flow rate” value ([11]; orally, 1 to 10 mg/kg) was 200%. For the same molecule, the “rise in the vertebral flow rate” value ([11]; orally, 1 to 10 mg/kg) was 60%, the “flow rate of the femoral artery” value ([11]; orally, less than 100 μg/kg) was “does not alter” and the “flow rate of the vertebral artery” value ([11]; orally, less than 100 μg/kg) was “does not alter”. The “α-blocking / α-lytic action” value [2] was “α-blocking action”, the “hypertensive effect of adrenalin” value ([2]; dogs anaesthetised by Nembutal) was “the hypertensive effect of adrenalin is reversed” and the LD50 [3] was 145 ± 10 mg/kg. For the same molecule, the “decrease in the vertebral flow rate” value [6, 15] was 19%, the “effect on the mesenteric flow rate” value [6, 15] was “practically no effect” and the “increase in the differential arterial pressure” value [6, 15] was 50%. For the same molecule, the tachycardia ([6]; anaesthetised dogs (Nembutal), 2.5 mg/kg i.v. over 5 minutes, increase (+)) was 19% and the femoral vasodilating effect ([6]; anaesthetised dogs (Nembutal), 2.5 mg/kg i.v. over 5 minutes, slight, increase (+)) was 19%.
